A word on the Ki: it is the equilibrium dissociation constant of an inhibitor or competing ligand from its target.

The structures appear in SMILES notation.

recombinant human 5-HT5A receptor, sequence (P47898 whole entry): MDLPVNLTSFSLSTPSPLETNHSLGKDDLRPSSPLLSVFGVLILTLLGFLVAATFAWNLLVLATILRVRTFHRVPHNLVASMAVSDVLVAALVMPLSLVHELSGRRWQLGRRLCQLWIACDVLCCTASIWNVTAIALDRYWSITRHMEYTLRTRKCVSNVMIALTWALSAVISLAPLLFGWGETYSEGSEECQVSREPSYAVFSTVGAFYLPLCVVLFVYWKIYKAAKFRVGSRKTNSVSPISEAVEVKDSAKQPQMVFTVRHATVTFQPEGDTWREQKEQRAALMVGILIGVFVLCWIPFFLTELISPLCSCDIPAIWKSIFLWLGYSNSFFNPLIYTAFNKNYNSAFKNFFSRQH

The assay addresses recombinant human 5-HT5A receptor (Homo sapiens, UniProt P47898). Put plainly: [3H]LSD radioligand binding assay. As to conditions: [3H]LSD (approximately 1 nM); membranes from HEK-EBNA cells transiently expressing 5-HT5A; Ki by Cheng-Prussoff equation; read-out: Ki. An outline of the steps:
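Membranes from HEK-EBNA cells transiently expressing the receptor, with ~1 nM [3H]LSD in 50 mM Tris, 1 mM EGTA, 10 mM MgCl2, 10 μM pargyline, pH 7.4, SPA bead format. Incubated 120 min RT; nonspecific binding defined with 2 μM methiothepin. 10 concentrations in duplicate; IC50 converted to Ki via Cheng-Prusoff.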
With `COc1cccc2c1C(NC1=Nc3ccc(NS(=O)(=O)c4ccccc4)cc3CO1)CO2` (racemic) [Example 115, rac-N-[2-(4-Methoxy-2,3-dihydro-benzofuran-3-ylamino)-4H-benzo[d][1,3]oxazin-6-yl]-benzenesulfonamide], the Ki was 20.9 nM.
As for `CN1CCN(CC(=O)Nc2ccc3c(c2)COC(NC2CCOc4ccccc42)=N3)CC1` (racemic) [Example 120, rac-N-[2-(Chroman-4-ylamino)-4H-benzo[d][1,3]oxazin-6-yl]-2-(4-methyl-piperazin-1-yl)-acetamide], the inhibition constant (Ki) is 14.3 nM.
With `O=C(CN1CCOCC1)Nc1ccc2c(c1)COC(NC1CCOc3ccccc31)=N2` (racemic) [Example 121, N-[2-(Chroman-4-ylamino)-4H-benzo[d][1,3]oxazin-6-yl]-2-morpholin-4-yl-acetamide] the figure was 135 nM.
Regarding `COc1cccc2c1C(NC1=Nc3ccc(C#N)cc3CO1)CO2` (racemic) [Example 141, rac-2-(4-Methoxy-2,3-dihydro-benzofuran-3-ylamino)-4H-benzo[d][1,3]oxazine-6-carbonitrile], the inhibition constant (Ki) came out at 160 nM.
Regarding `COc1cccc2c1C(NC1=Nc3ccc(C#N)cc3CO1)CC2` (racemic) [Example 142, rac-2-(7-Methoxy-indan-1-ylamino)-4H-benzo[d][1,3]oxazine-6-carbonitrile], the inhibition constant (Ki) came to 27 nM.
For `COc1ccccc1CNC1=Nc2ccc([N+](=O)[O-])cc2CO1` [Example 1, (2-Methoxy-benzyl)-(6-nitro-4H-benzo[d][1,3]oxazin-2-yl)-amine], the Ki was 390 nM.
On to `Nc1ccc2c(c1)COC(N[C@@H]1CCc3ccccc31)=N2` [Example 2, (R)-N^2-Indan-1-yl-4H-benzo[d][1,3]oxazine-2,6-diamine], for which the inhibition constant (Ki) is 1.04 nM.
With `CN1CCN(CC(=O)Nc2ccc3c(c2)COC(N[C@@H]2CCc4ccccc42)=N3)CC1` [Example 3, N-[2-((R)-Indan-1-ylamino)-4H-benzo[d][1,3]oxazin-6-yl]-2-(4-methyl-piperazin-1-yl)-acetamide] the figure was 1.84 nM; with `COc1ccccc1CNC1=Nc2ccc(N)cc2CO1` [Example 4, N^2-(2-Methoxy-benzyl)-4H-benzo[d][1,3]oxazine-2,6-diamine], 6.05 nM.
Consider `COc1ccccc1CNC1=Nc2ccc(NC(=O)C3CC3)cc2CO1` [Example 7, Cyclopropanecarboxylic acid [2-(2-methoxy-benzylamino)-4H-benzo[d][1,3]oxazin-6-yl]-amide], for which the Ki worked out at 2.98 nM.
As for `O=C(Nc1ccc2c(c1)COC(N[C@@H]1CCc3ccccc31)=N2)C1CC1` [Example 18, Cyclopropanecarboxylic acid [2-((R)-indan-1-ylamino)-4H-benzo[d][1,3]oxazin-6-yl]-amide], the Ki stood at 0.83 nM.
Take `COCC(=O)Nc1ccc2c(c1)COC(N[C@@H]1CCc3ccccc31)=N2` [Example 19, N-[2-((R)-Indan-1-ylamino)-4H-benzo[d][1,3]oxazin-6-yl]-2-methoxy-acetamide]: the inhibitory constant (Ki) came out at 4.1 nM.
Turning to `COc1ccccc1CNC1=Nc2ccc(NC(=O)CN3CCN(C)CC3)cc2CO1` [Example 26, N-[2-(2-Methoxy-benzylamino)-4H-benzo[d][1,3]oxazin-6-yl]-2-(4-methyl-piperazin-1-yl)-acetamide], the inhibition constant (Ki) is 6.12 nM.
With `CN(C)S(=O)(=O)Nc1ccc2c(c1)COC(N[C@@H]1CCc3ccccc31)=N2` [Example 27, N,N-(Dimethyl)-N′-{2-((R)-indan-1-ylamino)-4H-benzo[d][1,3]oxazin-6-yl}-sulfamide] the figure was 2.36 nM.
For the compound `COc1ccccc1CNC1=Nc2ccc(NC(=O)CN3CCN(CCO)CC3)cc2CO1` [Example 28, 2-[4-(2-Hydroxy-ethyl)-piperazin-1-yl]-N-[2-(2-methoxy-benzylamino)-4H-benzo[d][1,3]oxazin-6-yl]-acetamide], the Ki was 10.2 nM.
Consider `COc1ccccc1CNC1=Nc2ccc(NC(=O)CN3CCN(C(C)C)CC3)cc2CO1` [Example 29, 2-(4-Isopropyl-piperazin-1-yl)-N-[2-(2-methoxy-benzylamino)-4H-benzo[d][1,3]oxazin-6-yl]-acetamide], for which the Ki came out at 10.9 nM.
With `O=S(=O)(Nc1ccc2c(c1)COC(N[C@@H]1CCc3ccccc31)=N2)N1CCCCC1` [Example 30, Piperidine-1-sulfonic acid [2-((R)-indan-1-ylamino)-4H-benzo[d][1,3]oxazin-6-yl]-amide], the Ki was determined as 4.2 nM.
On to `O=S(=O)(Nc1ccc2c(c1)COC(N[C@@H]1CCc3ccccc31)=N2)N1CCOCC1` [Example 31, Morpholine-4-sulfonic acid [2-((R)-indan-1-ylamino)-4H-benzo[d][1,3]oxazin-6-yl]-amide], for which the inhibitory constant (Ki) was found to be 4.38 nM.
On to `Nc1ccc2c(c1)COC(N[C@@H]1CCCc3ccccc31)=N2` [Example 33, (R)-N^2-(1,2,3,4-Tetrahydro-naphthalen-1-yl)-4H-benzo[d][1,3]oxazine-2,6-diamine], for which the Ki is 7.85 nM.
Turning to `FC(F)(F)c1cccc(Nc2ccc3c(c2)COC(N[C@@H]2CCc4ccccc42)=N3)n1` [Example 35, N^2-(R)-Indan-1-yl-N^6-(6-trifluoromethyl-pyridin-2-yl)-4H-benzo[d][1,3]oxazine-2,6-diamine], the Ki was determined as 6.16 nM.
Consider `O=C(CN1CCOCC1)Nc1ccc2c(c1)COC(N[C@@H]1CCc3ccccc31)=N2` [Example 37, N-[2-((R)-Indan-1-ylamino)-4H-benzo[d][1,3]oxazin-6-yl]-2-morpholin-4-yl-acetamide], for which the inhibition constant Ki came to 8.74 nM.
As to `CN1CCN(CC(=O)Nc2ccc3c(c2)COC(N[C@@H]2CCCc4ccccc42)=N3)CC1` [Example 38, 2-(4-Methyl-piperazin-1-yl)-N-{2-[(R)-(1,2,3,4-tetrahydro-naphthalen-1-yl)amino]-4H-benzo[d][1,3]oxazin-6-yl}-acetamide], the inhibition constant (Ki) is 3.16 nM.
On to `O=C(CN1CCOCC1)Nc1ccc2c(c1)COC(N[C@@H]1CCCc3ccccc31)=N2` [Example 39, 2-Morpholin-4-yl-N-{2-[(R)-(1,2,3,4-tetrahydro-naphthalen-1-yl)amino]-4H-benzo[d][1,3]oxazin-6-yl}-acetamide], for which the inhibitory constant (Ki) stood at 22.8 nM.
Take `COCCNCC(=O)Nc1ccc2c(c1)COC(N[C@@H]1CCCc3ccccc31)=N2` [Example 40, 2-(2-Methoxy-ethylamino)-N-{2-[(R)-(1,2,3,4-tetrahydro-naphthalen-1-yl)amino]-4H-benzo[d][1,3]oxazin-6-yl}-acetamide]: the inhibitory constant (Ki) stood at 33 nM.
As for `CC(C)(O)CNCC(=O)Nc1ccc2c(c1)COC(N[C@@H]1CCCc3ccccc31)=N2` [Example 41, 2-(2-Hydroxy-2-methyl-propylamino)-N-{2-[(R)-(1,2,3,4-tetrahydro-naphthalen-1-yl)amino]-4H-benzo[d][1,3]oxazin-6-yl}-acetamide], the Ki worked out at 33 nM.
Take `FC(F)(F)c1ccnc(Nc2ccc3c(c2)COC(N[C@@H]2CCc4ccccc42)=N3)n1` [Example 46, N^2-(R)-Indan-1-yl-N^6-(4-trifluoromethyl-pyrimidin-2-yl)-4H-benzo[d][1,3]oxazine-2,6-diamine]: the Ki was determined as 7.1 nM.
For `Cc1cc(C)nc(Nc2ccc3c(c2)COC(N[C@@H]2CCc4ccccc42)=N3)n1` [Example 47, N^6-(4,6-Dimethyl-pyrimidin-2-yl)-N^2-(R)-indan-1-yl-4H-benzo[d][1,3]oxazine-2,6-diamine], the inhibitory constant (Ki) amounted to 3.56 nM.
Regarding `CC(=O)Nc1ccc2c(c1)COC(N[C@@H]1CCc3ccccc31)=N2` [Example 48, N-[2-((R)-Indan-1-ylamino)-4H-benzo[d][1,3]oxazin-6-yl]-acetamide], the Ki was 3.63 nM.
Regarding `O=C(CN1CCSCC1)Nc1ccc2c(c1)COC(N[C@@H]1CCc3ccccc31)=N2` [Example 65, N-[2-((R)-Indan-1-ylamino)-4H-benzo[d][1,3]oxazin-6-yl]-2-thiomorpholin-4-yl-acetamide], the Ki came out at 7.62 nM.
In the case of `O=C(CN1CCS(=O)(=O)CC1)Nc1ccc2c(c1)COC(N[C@@H]1CCc3ccccc31)=N2` [Example 66, 2-(1,1-Dioxo-1λ^6-thiomorpholin-4-yl)-N-[2-((R)-indan-1-ylamino)-4H-benzo[d][1,3]oxazin-6-yl]-acetamide], the Ki is 16 nM.
With `O=C(Cn1ccnc1)Nc1ccc2c(c1)COC(N[C@@H]1CCc3ccccc31)=N2` [Example 67, 2-Imidazol-1-yl-N-[2-((R)-indan-1-ylamino)-4H-benzo[d][1,3]oxazin-6-yl]-acetamide] the figure was 7.42 nM; with `CC(C)(O)CNCC(=O)Nc1ccc2c(c1)COC(N[C@@H]1CCc3ccccc31)=N2` [Example 68, 2-(2-Hydroxy-2-methyl-propylamino)-N-[2-((R)-indan-1-ylamino)-4H-benzo[d][1,3]oxazin-6-yl]-acetamide], 9.23 nM; with `COCCNCC(=O)Nc1ccc2c(c1)COC(N[C@@H]1CCc3ccccc31)=N2` [Example 69, N-[2-((R)-Indan-1-ylamino)-4H-benzo[d][1,3]oxazin-6-yl]-2-(2-methoxy-ethylamino)-acetamide], 8.34 nM.
With `O=C(CN1CCN(CC(F)(F)F)CC1)Nc1ccc2c(c1)COC(N[C@@H]1CCc3ccccc31)=N2` [Example 70, N-[2-((R)-Indan-1-ylamino)-4H-benzo[d][1,3]oxazin-6-yl]-2-[4-(2,2,2-trifluoro-ethyl)-piperazin-1-yl]-acetamide] the figure was 33 nM.
For the compound `CN1CCN(S(=O)(=O)Nc2ccc3c(c2)COC(N[C@@H]2CCCc4ccccc42)=N3)CC1` [Example 71, 4-Methyl-piperazine-1-sulfonic acid {2-[(R)-(1,2,3,4-tetrahydro-naphthalen-1-yl)amino]-4H-benzo[d][1,3]oxazin-6-yl}-amide], the Ki is 138 nM.
On to `CN1CCN(S(=O)(=O)Nc2ccc3c(c2)COC(N[C@@H]2CCc4ccccc42)=N3)CC1` [Example 72, 4-Methyl-piperazine-1-sulfonic acid [2-((R)-indan-1-ylamino)-4H-benzo[d][1,3]oxazin-6-yl]-amide], for which the Ki amounted to 28.6 nM.

Source of the values: patent publication US8163740B2, “6-substituted benzoxazines” (Hoffmann-La Roche Inc., priority 2008, dated 2012).
